Residues, ends and D or L forms follow the SMILES beside them.
Assays:
[1] = system: HCMV TB40/E-ΔUL16-eGFP; assay: Infection assay: HFF infected with TB40E-ΔUL16-EGFP and treated with HD5-derived peptides (screening, GFP+/DAPI+); type: cell-based, Human Cytomegalovirus; conditions: 75 μM peptide, MOI 0,5, 40 h, compared to other tested peptides
Protocol: (§1) For the infection assays, the cells were sown in 96-well plates. Human foreskin fibroblasts (HFF) and ARPE-19 cells (Adult Retinal Pigment Epithelial cell line-19) were seeded with 10 000 cells in 200 μl medium per well, macrophages with 20 000 cells in 200 μl medium per well and THP with 50 000 cells in 200 μl per well. The cells were incubated overnight at 37° C. and 5% CO2 and treated the following day. A medium change to P/S-free medium was performed to avoid interaction between the antibiotics used and the peptide sequences. Afterwards the corresponding peptides were added in different concentrations and immediately afterwards the virus, the final volume was 100 μl per well. The virus of the strain TB40/E-ΔUL16-eGFP was used. TB40-ΔUL16-eGFP is a derivative of the strain TB40, in which the majority of the open reading frame UL16 has been replaced by the open reading frame of eGFP, essentially as described in detail for a homologous mutant of strain AD169 (Tischer et al., “Two-step red-mediated recombination for versatile high-efficiency markerless DNA manipulation in Escherichia coli”, Biotechniques, (2006), 40(2):191-7). […] The required volume of the virus stock was calculated using the titer according to the following formula: […]

[2] = system: HCMV TB40/E-ΔUL16-eGFP; assay: Infection assay on different cell types (HFF, ARPE-19, THP-1) with TB40E-ΔUL16-EGFP, IE+/DAPI+; type: cell-based, Human Cytomegalovirus; conditions: 40 h
Protocol: as §1

C[C@H](N)C(=O)N[C@H](C(=O)N[C@@H](CS)C(=O)N[C@@H](Cc1ccc(O)cc1)C(=O)N[C@@H](CS)C(=O)N[C@@H](CCCNC(=N)N)C(=O)N[C@H](C(=O)NCC(=O)N[C@@H](CCCNC(=N)N)C(=O)O)[C@@H](C)O)[C@@H](C)O [HD5 (1-9), ATCYCRTGR] (H-ATCYCRTGR-OH; N-terminus and C-terminus assumed)
antiviral effect (infection rate GFP+/DAPI+) [1]: excellent antiviral effect | concentration from which HCMV infection is inhibited [2]: ≥ 50 µM

From patent publication US20220213156A1, “Peptides for use in therapy or prophylaxis of Herpesviridae-infections” (priority 2019, published 2022)
